# Test results taken from PubChem BioAssay AID2060340 (Molecular Pharmacology Branch, DTP, NCI, 2025).
# Where “and” joins values, the source holds several entries; their conditions need not be identical. Identical values can stand only once.
# Test system: 349418-098-R-PDC spheroids, viability, % test/control
# Experiment: Anticancer human tumor 349418-098-R-PDC patient-derived lung adenocarcinoma cell line growth inhibition [IpAb]
# Settings: spheroids with HUVEC and MSC; for viability, T/C: stronger effect = lower value
# Source text: Combinatorial screen of targeted agents with ipatasertib and abemaciclib in multi-cell type tumor spheroids
# A high-throughput screen of multi-cell type tumor spheroids was designed to identify active combinations of targeted small molecules and ipatasertib or abemaciclib. Complex spheroids include a stromal component modeled by human endothelial cells (HUVEC) and fibroblasts modeled by human mesenchymal stem cells (MSCs). The concentration ranges selected for each drug and investigational agent were based upon clinically achievable concentrations if the clinical Cmax of the agent was known.
# Compounds. The drugs and investigational agents: ipatasertib (NSC767898), abemaciclib(NSC768073), selumetinib (NSC741078), trametinib (758246), adavosertib (NSC754352), everolimus (NSC733504), sapanisertib (NSC764658), vemurafenib (NSC761431), venetoclax (NSC766270), copanlisib (NSC809693), apelisib (NSC765974), palbociblib (NSC758247), vemurafenib (NSC761431), dabrafenib (NSC764134), ravoxertinib (NSC781343), BMS-387032 (NSC767048), sotorasib (NSC818433), talazoparib (NSC767125) and afursertib (NSC778305), were obtained from the National Cancer Institute (NCI) Developmental Therapeutics Program Chemical Repository. The FDA-approved anticancer drug set is available from the NCI Developmental Therapeutics Program. […] The stock solutions were prepared in dimethyl sulfoxide (DMSO, Sigma-Aldrich, St. Louis, MO, cat. D2650) at 800-fold the tested concentration and stored at -70 degrees C prior to their use. All drugs and investigational agents were tested over a range starting from a high concentration at or near the clinical Cmax and decreasing in half-log increments. If the clinical Cmax for an agent had not been determined, the highest concentration tested was 10 microM.
# NCI60 Cell Culture. NCI60 cell lines were obtained from the NCI Developmental Therapeutics Program Tumor Repository. For each lot of cells, the Repository performed Applied Biosystems AmpFLSTR Identifiler testing with PCR amplification to confirm consistency with the published Identifier STR profile for each cell line. Cells were kept in continuous culture for no more than 20 passages. The optimal seeding densities for each of the cell lines at each time point assessed were determined prior to performing the concentration response studies. Briefly, the NCI60 human tumor lines were grown as monolayers in RPMI 1640 medium supplemented with 10% FBS and 2 mmol/L L-glutamine.
# An additional 9 lines were from the NCI60 cell line panel including MDA-MB-231 breast carcinoma, MDA-MB-468 breast carcinoma, MCF7 breast carcinoma, Hs578T breast carcinoma, MALME-3M melanoma, SK-MEL-2 melanoma, SK-OV-3 ovarian carcinoma, DU-145 prostate carcinoma, PC-3 prostate carcinoma, all cell lines along with major genetic alterations are listed on Table 2. Pooled donor human umbilical vein endothelial cells (HUVEC, Lonza, cat. CC-2519) and human mesenchymal stem cells (hMSC, Lonza, cat. PT-2501) were purchased from Lonza (Walkersville, MD).
# PDMR cell lines were grown in complete medium (DC medium): Dulbecco's modified Eagle's medium (DMEM)/F12 supplemented with 5% fetal bovine serum (FBS), 2 mM L-glutamine, 100 U/mL penicillin and 100 µg/ml streptomycin, 0.4 µg/ml hydrocortisone, 10 ng/ml epidermal growth factor (EGF) recombinant human protein, 24 µg/mL adenine, and 0.1 mg/mL primocin. During culture from frozen stock vials, PDMR cells were cultured in the same medium containing 10 µM Y-27632 (see Table 3). The PDCs were cultured in complete DMEM/F12 media without 10 microM Y-27632 dihydrochloride for at least two passages prior to the screen. The pooled donor HUVEC and hMSC were cultured in endothelial cell growth medium 2 (PromoCell, Heidelberg, Germany, cat. C-22011) and mesenchymal stem cell growth medium 2 (PromoCell, cat. C-28009), respectively. For all experiments, HUVEC and hMSC were used at passages </=5.
# […]
# [1] = curve of first compound, second compound 0.1 µM
# [2] = curve of first compound, second compound 0.316 µM
# [3] = curve of first compound, second compound 1 µM
# 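Note: spheroids exposed to compounds for 7 days.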
smiles,measurement,setting,value
CC(C)n1nc(-c2ccc3oc(N)nc3c2)c2c(N)ncnc21 + CCN1CCN(Cc2ccc(Nc3ncc(F)c(-c4cc(F)c5nc(C)n(C(C)C)c5c4)n3)nc2)CC1,IC50,"curve of first compound, second compound 0.01 µM",0.659 nM
same,IC50,"curve of first compound, second compound 0.0316 µM",< 0.316 nM
same,IC50,[1],< 0.316 nM
same,IC50,[2],< 0.316 nM
same,IC50,[3],< 0.316 nM
same,"viability, T/C","second compound 0.01 µM, first compound 0.000316 µM",78.5%
same,"viability, T/C","second compound 0.01 µM, first compound 0.001 µM",33.8%
same,"viability, T/C","second compound 0.01 µM, first compound 0.00316 µM",13.3%
same,"viability, T/C","second compound 0.01 µM, first compound 0.01 µM",8.46%
same,"viability, T/C","second compound 0.01 µM, first compound 0.0316 µM",7.29%
same,"viability, T/C","second compound 0.01 µM, first compound 0.1 µM",6.79%
same,"viability, T/C","second compound 0.0316 µM, first compound 0.000316 µM",38.4%
same,"viability, T/C","second compound 0.0316 µM, first compound 0.001 µM",22.3%
same,"viability, T/C","second compound 0.0316 µM, first compound 0.00316 µM",10.4%
same,"viability, T/C","second compound 0.0316 µM, first compound 0.01 µM",6.7%
same,"viability, T/C","second compound 0.0316 µM, first compound 0.0316 µM",6.75%
same,"viability, T/C","second compound 0.0316 µM, first compound 0.1 µM",6.38%
same,"viability, T/C","second compound 0.1 µM, first compound 0.000316 µM",26.9%
same,"viability, T/C","second compound 0.1 µM, first compound 0.001 µM",14.9%
same,"viability, T/C","second compound 0.1 µM, first compound 0.00316 µM",10.1%
same,"viability, T/C","second compound 0.1 µM, first compound 0.01 µM",7.85%
same,"viability, T/C","second compound 0.1 µM, first compound 0.0316 µM",6.9%
same,"viability, T/C","second compound 0.1 µM, first compound 0.1 µM",6.67%
same,"viability, T/C","second compound 0.316 µM, first compound 0.000316 µM",20.2%
same,"viability, T/C","second compound 0.316 µM, first compound 0.001 µM",13.6%
same,"viability, T/C","second compound 0.316 µM, first compound 0.00316 µM",9.36%
same,"viability, T/C","second compound 0.316 µM, first compound 0.01 µM",7.22%
same,"viability, T/C","second compound 0.316 µM, first compound 0.0316 µM",7.46%
same,"viability, T/C","second compound 0.316 µM, first compound 0.1 µM",6.4%
same,"viability, T/C","second compound 1 µM, first compound 0.000316 µM",14.4%
same,"viability, T/C","second compound 1 µM, first compound 0.001 µM",12.4%
same,"viability, T/C","second compound 1 µM, first compound 0.00316 µM",8.8%
same,"viability, T/C","second compound 1 µM, first compound 0.01 µM",7.28%
same,"viability, T/C","second compound 1 µM, first compound 0.0316 µM",7.88%
same,"viability, T/C","second compound 1 µM, first compound 0.1 µM",6.96%
CC(C)(C)c1cnc(CSc2cnc(NC(=O)C3CCNCC3)s2)o1 + CC(C)NCC(C(=O)N1CCN(c2ncnc3c2C(C)CC3O)CC1)c1ccc(Cl)cc1,IC50,[1],40.6 nM
same,IC50,[2],< 9.49 nM
same,IC50,[3],< 9.49 nM
same,IC50,"curve of first compound, second compound 3.16 µM",< 9.49 nM
same,IC50,"curve of first compound, second compound 10 µM",< 9.49 nM
same,"viability, T/C","second compound 0.1 µM, first compound 0.00949 µM",88.9%
same,"viability, T/C","second compound 0.1 µM, first compound 0.03 µM",65.3%
same,"viability, T/C","second compound 0.1 µM, first compound 0.0949 µM",6.84%
same,"viability, T/C","second compound 0.1 µM, first compound 0.3 µM",2.85%
same,"viability, T/C","second compound 0.1 µM, first compound 0.949 µM",2.98%
same,"viability, T/C","second compound 0.1 µM, first compound 3 µM",2.15%
same,"viability, T/C","second compound 0.316 µM, first compound 0.00949 µM",45.6%
same,"viability, T/C","second compound 0.316 µM, first compound 0.03 µM",31.9%
same,"viability, T/C","second compound 0.316 µM, first compound 0.0949 µM",5.43%
same,"viability, T/C","second compound 0.316 µM, first compound 0.3 µM",2.19%
same,"viability, T/C","second compound 0.316 µM, first compound 0.949 µM",2.77%
same,"viability, T/C","second compound 0.316 µM, first compound 3 µM",1.75%
same,"viability, T/C","second compound 1 µM, first compound 0.00949 µM",22.1%
same,"viability, T/C","second compound 1 µM, first compound 0.03 µM",15.5%
same,"viability, T/C","second compound 1 µM, first compound 0.0949 µM",3.25%
same,"viability, T/C","second compound 1 µM, first compound 0.3 µM",2.27%
same,"viability, T/C","second compound 1 µM, first compound 0.949 µM",2.58%
same,"viability, T/C","second compound 1 µM, first compound 3 µM",2.1%
same,"viability, T/C","second compound 3.16 µM, first compound 0.00949 µM",9.45%
same,"viability, T/C","second compound 3.16 µM, first compound 0.03 µM",8.27%
same,"viability, T/C","second compound 3.16 µM, first compound 0.0949 µM",3.2%
same,"viability, T/C","second compound 3.16 µM, first compound 0.3 µM",2.2%
same,"viability, T/C","second compound 3.16 µM, first compound 0.949 µM",2.72%
same,"viability, T/C","second compound 3.16 µM, first compound 3 µM",2.4%
same,"viability, T/C","second compound 10 µM, first compound 0.00949 µM",5.95%
same,"viability, T/C","second compound 10 µM, first compound 0.03 µM",5.37%
same,"viability, T/C","second compound 10 µM, first compound 0.0949 µM",2.11%
same,"viability, T/C","second compound 10 µM, first compound 0.3 µM",1.93%
same,"viability, T/C","second compound 10 µM, first compound 0.949 µM",2.03%
same,"viability, T/C","second compound 10 µM, first compound 3 µM",1.53%
Cc1nc(NC(=O)N2CCCC2C(N)=O)sc1-c1ccnc(C(C)(C)C(F)(F)F)c1 (configuration not stated),"viability, T/C",compound 0.0316 µM,87.3% and 95.4%
same,"viability, T/C",compound 0.1 µM,81.1% and 75.3%
same,"viability, T/C",compound 0.316 µM,46.4% and 43.7%
same,"viability, T/C",compound 1 µM,18.9% and 22.8%
same,"viability, T/C",compound 3.16 µM,14% and 15.1%
same,"viability, T/C",compound 10 µM,11.2% and 14.1%
same,IC50,curve of compound,284 nM and 251 nM
